For 6 molecules, inhibition results are on record in PMC9516332 (Frontiers in Oncology, 2022).

What all share (test): Kinase panel profiling at 1 µmol/L (MSA or IMAP), percentage inhibition
Common to all, as to format: biochemical

Test [1] concerns the target T1, panel of 255 wild-type kinases (Homo sapiens, UniProt O14920).
T1 sequence (O14920 1-756): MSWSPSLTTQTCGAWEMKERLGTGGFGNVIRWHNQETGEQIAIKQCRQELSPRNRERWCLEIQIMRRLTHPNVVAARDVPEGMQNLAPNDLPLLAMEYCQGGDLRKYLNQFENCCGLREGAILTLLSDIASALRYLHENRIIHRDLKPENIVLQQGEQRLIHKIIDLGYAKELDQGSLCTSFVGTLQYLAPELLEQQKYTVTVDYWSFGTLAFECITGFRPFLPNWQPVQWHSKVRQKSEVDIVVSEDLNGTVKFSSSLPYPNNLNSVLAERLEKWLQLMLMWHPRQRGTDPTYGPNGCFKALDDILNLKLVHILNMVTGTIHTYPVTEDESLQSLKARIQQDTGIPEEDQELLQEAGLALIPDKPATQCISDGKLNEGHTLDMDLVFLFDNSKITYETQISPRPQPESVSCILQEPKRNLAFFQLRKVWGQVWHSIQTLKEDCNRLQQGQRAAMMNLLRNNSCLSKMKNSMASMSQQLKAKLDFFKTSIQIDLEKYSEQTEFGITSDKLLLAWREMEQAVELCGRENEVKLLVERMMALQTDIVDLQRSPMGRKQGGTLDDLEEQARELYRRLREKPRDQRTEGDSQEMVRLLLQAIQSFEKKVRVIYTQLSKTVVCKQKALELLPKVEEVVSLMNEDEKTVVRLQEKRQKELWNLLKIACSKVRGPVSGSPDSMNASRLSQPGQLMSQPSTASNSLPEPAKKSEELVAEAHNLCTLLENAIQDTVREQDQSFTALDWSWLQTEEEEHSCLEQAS
As to conditions: kinase IKKβ; 1 µmol/L single concentration; read-out: %-inhibition at 1 µmol/L, IKKβ.

The target of test [2] is panel of 255 wild-type kinases (Homo sapiens, UniProt P00533). As to conditions: kinase EGFR; 1 µmol/L single concentration; read-out: %-inhibition at 1 µmol/L, EGFR.
In test [3] the target is panel of 255 wild-type kinases (Homo sapiens, UniProt P04629). The settings on record: kinase TRKA; 1 µmol/L single concentration; read-out: %-inhibition at 1 µmol/L, TRKA.
Test [4] deals with panel of 255 wild-type kinases (Homo sapiens, UniProt P07333). As to conditions: kinase FMS; 1 µmol/L single concentration; read-out: %-inhibition at 1 µmol/L, FMS.
The target in test [5] is panel of 255 wild-type kinases (Homo sapiens, UniProt P16234). The settings on record: kinase PDGFRα; 1 µmol/L single concentration; read-out: %-inhibition at 1 µmol/L, PDGFRα.
The target of test [6] is panel of 255 wild-type kinases (Homo sapiens, UniProt P23458). The settings on record: kinase JAK1; 1 µmol/L single concentration; read-out: %-inhibition at 1 µmol/L, JAK1.
Test [7] concerns the target panel of 255 wild-type kinases (Homo sapiens, UniProt P28482). As to conditions: kinase Erk2; 1 µmol/L single concentration; read-out: %-inhibition at 1 µmol/L, Erk2.
Test [8] concerns the target panel of 255 wild-type kinases (Homo sapiens, UniProt P45983). The settings on record: kinase JNK1; 1 µmol/L single concentration; read-out: %-inhibition at 1 µmol/L, JNK1.
Test [9] concerns the target panel of 255 wild-type kinases (Homo sapiens, UniProt P51451). As to conditions: BLK kinase assay; 1 µmol/L single concentration; read-out: %-inhibition BLK.
The target in test [10] is T2, panel of 255 wild-type kinases (Homo sapiens, UniProt P51813).
T2 sequence (P51813 1-675): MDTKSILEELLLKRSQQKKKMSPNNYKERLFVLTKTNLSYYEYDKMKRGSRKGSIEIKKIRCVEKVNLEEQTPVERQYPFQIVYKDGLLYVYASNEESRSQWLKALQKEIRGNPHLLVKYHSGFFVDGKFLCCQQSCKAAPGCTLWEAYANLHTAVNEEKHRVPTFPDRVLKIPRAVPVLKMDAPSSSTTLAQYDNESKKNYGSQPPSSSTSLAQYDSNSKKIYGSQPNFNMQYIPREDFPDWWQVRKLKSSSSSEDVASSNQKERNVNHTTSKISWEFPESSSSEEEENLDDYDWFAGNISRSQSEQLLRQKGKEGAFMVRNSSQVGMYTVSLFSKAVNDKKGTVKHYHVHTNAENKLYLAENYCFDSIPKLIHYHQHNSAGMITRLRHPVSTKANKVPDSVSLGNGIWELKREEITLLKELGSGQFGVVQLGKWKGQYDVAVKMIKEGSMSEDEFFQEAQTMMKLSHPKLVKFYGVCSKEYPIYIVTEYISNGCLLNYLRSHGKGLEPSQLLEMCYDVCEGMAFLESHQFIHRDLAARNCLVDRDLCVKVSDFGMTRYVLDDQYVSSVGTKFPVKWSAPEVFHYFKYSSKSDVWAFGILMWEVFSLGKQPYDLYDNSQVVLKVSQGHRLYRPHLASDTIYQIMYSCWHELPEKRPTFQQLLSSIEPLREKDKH
As to conditions: BMX kinase assay; 1 µmol/L single concentration; read-out: %-inhibition BMX.

Test [11] addresses panel of 255 wild-type kinases (Homo sapiens, UniProt P53355). The settings on record: kinase DAPK1; 1 µmol/L single concentration; read-out: %-inhibition at 1 µmol/L, DAPK1.
Test [12] concerns the target panel of 255 wild-type kinases (Homo sapiens, UniProt P54646). As to conditions: AMPKα2/β1/γ1 kinase assay; 1 µmol/L single concentration; read-out: %-inhibition AMPKα2/β1/γ1.
The target in test [13] is panel of 255 wild-type kinases (Homo sapiens, UniProt P54756). As to conditions: kinase EPHA5; 1 µmol/L single concentration; read-out: %-inhibition at 1 µmol/L, EPHA5.
For test [14], the target named is panel of 255 wild-type kinases (Homo sapiens, UniProt Q06187). As to conditions: BTK kinase assay; 1 µmol/L single concentration; read-out: %-inhibition BTK.
The target in test [15] is panel of 255 wild-type kinases (Homo sapiens, UniProt Q9H422). As to conditions: kinase HIPK3; 1 µmol/L single concentration; read-out: %-inhibition at 1 µmol/L, HIPK3.

As to `O=C(Nc1cnn2ccc(N3CCC[C@@H]3c3cc(F)ccc3F)nc12)N1CC[C@H](O)C1` [larotrectinib], the inhibition at 1 µM in test [1] is -1.76%; in [2], 5%; in [3], 99%; in test [4], -4.31%; in test [5], 2.45%; in test [6] it was 0.894%. Further, the inhibition at 1 µM was -6% in test [7]; -3.55% in test [8]; -4% in [9]; 21% in [10]; -4% in [11]; -6% in [12]. In addition, the inhibition at 1 µM was -0.0881% in [13], -3.71% in [14] and -4% in [15].
As to `CCN1C(=O)N(c2c(F)c(OC)cc(OC)c2F)Cc2cnc3[nH]c(CN4CCOCC4)cc3c21` [pemigatinib], the inhibition at 1 µM in test [1] was -1.22%; in test [2], -2%; in [3], 14%; in test [4], 93%; in test [5], 69%; in test [6], -2.65%. The inhibition at 1 µM in [7] was -1.6%; in test [8] it was -4.3%; in test [9], 27%; in test [10] it was 1.44%; in test [11], -4.25%; in test [12], -5%. The inhibition at 1 µM in test [13] is -2%; in test [14] it was -5.29%; in [15], 0.456%.
Regarding `CO[C@]1(C(=O)N[C@@H](C)c2ccc(-n3cc(F)cn3)nc2)CC[C@H](c2nc(C)cc(Nc3cc(C)[nH]n3)n2)CC1` [pralsetinib], the inhibition at 1 µM in [1] was found to be 32%; in test [2], 48%; in test [3], 96%; in test [4] it was 94%; in test [5] it was 99%; in [6], 101%. For the same molecule, the inhibition at 1 µM was 0.23% in [7]; -5% in test [8]; 84% in test [9]; 82% in test [10]; 53% in [11]; 83% in test [12]. Further, the inhibition at 1 µM in [13] was determined as 74%; in test [14], 53%; in [15], 9%.
Regarding `COc1ccc(CN2C3CC2CN(c2ccc(-c4cc(OCC(C)(C)O)cn5ncc(C#N)c45)cn2)C3)cn1` [selpercatinib], the inhibition at 1 µM was -2.15% in test [1]; 0.116% in test [2]; 33% in test [3]; 79% in [4]; 96% in test [5]; 6% in test [6]. In addition, the inhibition at 1 µM in test [7] is -4%; in test [8] it was -5.39%; in test [9], 76%; in test [10] it was 12%; in [11], 26%; in test [12], 28%. Moreover, the inhibition at 1 µM is 69% in [13], 17% in [14] and -3% in test [15].
As for `Cn1cnc2c(F)c(Nc3ccc(Br)cc3Cl)c(C(=O)NOCCO)cc21` [selumetinib], the inhibition at 1 µM in test [1] turned out to be 1.34%; in test [2], 26%; in test [3] it was 18%; in test [4], 8.51%; in test [5] it was 25%; in [6], 2.46%. The inhibition at 1 µM in test [7] is -4.4%; in test [8], -4.74%; in test [9] it was -6%; in [10], 2.24%; in test [11], 2.59%; in test [12] it was 1.9%. For the same molecule, the inhibition at 1 µM in [13] is -12%; in test [14], 52%; in test [15], 3%.
Regarding `Cc1cc(Nc2ncnc3ccc(NC4=NC(C)(C)CO4)cc23)ccc1Oc1ccn2ncnc2c1` [tucatinib], the inhibition at 1 µM in [1] came to 1%; in test [2], 95%; in test [3], 20%; in test [4], 12%; in test [5], 30%; in [6], 2.72%. For the same molecule, the inhibition at 1 µM is -0.547% in test [7]; -3.72% in [8]; 2.27% in test [9]; 6.62% in [10]; 1.6% in [11]; -1.44% in test [12]. The inhibition at 1 µM in test [13] is -13%; in test [14], 21%; in test [15], 2.27%.
